According to PubChem BioAssay (NCI):
Values joined by “and” are separate entries in the source; they are usually repeats but may differ in a detail not shown here. Equal values may be shown once.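 Results reflect a 48-hour exposure of cells in 96-well plates to compound at five concentrations. Abbreviation: GI50, concentration required for 50% inhibition of growth. TGI: total growth inhibition.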

How the values were obtained:
Assay in all cases: DTP human tumour cell line panel, 48 h
DU-145 prostate = system: DU-145 prostate
OVCAR-3 ovarian = system: OVCAR-3 ovarian
RXF 393 renal = system: RXF 393 renal
SF-268 CNS = system: SF-268 CNS
K-562 leukemia = system: K-562 leukemia
SF-295 CNS = system: SF-295 CNS
IGROV1 ovarian = system: IGROV1 ovarian
HS 578T breast = system: HS 578T breast
MALME-3M melanoma = system: MALME-3M melanoma
SF-539 CNS = system: SF-539 CNS

| SMILES | TGI (DU-145 prostate) | TGI (OVCAR-3 ovarian) | TGI (RXF 393 renal) | TGI (SF-268 CNS) | TGI (K-562 leukemia) | TGI (SF-295 CNS) | TGI (IGROV1 ovarian) | TGI (HS 578T breast) | TGI (MALME-3M melanoma) | TGI (SF-539 CNS) | GI50 (DU-145 prostate) [µM] | GI50 (OVCAR-3 ovarian) [nM] | GI50 (RXF 393 renal) [nM] | GI50 (SF-268 CNS) [nM] | GI50 (K-562 leukemia) [nM] | GI50 (SF-295 CNS) [nM] | GI50 (IGROV1 ovarian) [nM] | GI50 (HS 578T breast) [µM] | GI50 (MALME-3M melanoma) [nM] | GI50 (SF-539 CNS) [nM] |
| --- | --- | --- | --- | --- | --- | --- | --- | --- | --- | --- | --- | --- | --- | --- | --- | --- | --- | --- | --- | --- |
| Cn1c(=O)nc2n(-c3ccc(Cl)cc3)c3cc(Cl)ccc3nc-2c1=O | 29 µM | 4.19 µM | 9.25 µM | 7.23 µM | 5.41 µM | 23.7 µM | 3.74 µM | 5.59 µM | 3.44 µM | 30.4 µM | – | – | – | – | – | – | – | – | – | – |
| COc1ccc(NC2=C(I)C(=O)c3ncccc3C2=O)cc1 | 1.87 µM | 1.13 µM | 2.82 µM | 4.23 µM | 5.19 µM | 3.16 µM | 1.93 µM | 5.04 µM | 2.44 µM | 2.75 µM | 0.524 | 270 | 1410 | 1280 | 533 | 1670 | 417 | 0.834 | 1190 | 1410 |
| O=c1cnnc(N/N=C/c2ccccc2O)[nH]1 | > 100 µM | > 100 µM | 37.7 µM | > 87.3 µM | > 100 µM | > 100 µM | 16.7 µM | > 100 µM | 47.5 µM | > 100 µM | 6.58 | 324 | 5160 | 3450 | 163 | 3110 | 3200 | 28.2 | 426 | 3200 |
| C#Cc1cccc(Nc2ncnc3ccc(OCCCCNCCS(C)(=O)=O)cc23)c1 | > 25 µM | > 23.6 µM | > 22.6 µM | > 23.7 µM | 14.6 µM | > 25 µM | > 16.3 µM | > 23.2 µM | 9.47 µM | 8.72 µM | 4.34 | 6500 | 5320 | 6130 | 6250 | 8840 | 2120 | 8.66 | 4880 | 4490 |
| CC1=C(C)C(=O)O[C@@H]([C@](C)(O)[C@]2(O)CC[C@@]3(O)[C@@H]4C[C@H](O)[C@]5(O)[C@@H](O)C=CC(=O)[C@]5(C)[C@H]4CC[C@]23C)C1 | > 100 µM | > 100 µM | > 100 µM | > 100 µM | > 100 µM | > 100 µM | > 100 µM | > 100 µM | > 100 µM | > 100 µM | – | – | – | – | – | – | – | – | – | – |
| O=C(C=P(c1ccccc1)(c1ccccc1)c1ccccc1)CCl | 2.38 µM | 2.68 µM | 2.41 µM | 4.01 µM | 9.12 µM | 7.62 µM | 5.75 µM | 11 µM | 3.08 µM | 2.98 µM | 1.13 | 1330 | 1010 | 1750 | 844 | 2300 | 1970 | 1.53 | 1320 | 1280 |
| O=Nc1c(-c2c(O)[nH]c3cc(Br)ccc23)[nH]c2ccccc12 | 2.56 µM | 2.24 µM | 3.42 µM | 3.66 µM | > 100 µM | 5.57 µM | 2.1 µM | 7.14 µM | 6.44 µM | 2.88 µM | 1.23 | 648 | 858 | 1520 | 1190 | 1340 | 140 | 0.239 | 2350 | 734 |
| CC(C)(c1ccccc1)c1cc(O)c(C(C)(C)c2ccccc2)cc1O | 16.2 µM | 8 µM | 6.85 µM | 12.8 µM | 12.2 µM | 3.23 µM | 13.3 µM | 19.6 µM | 12.3 µM | 9.59 µM | 3.83 | 2530 | 1830 | 2990 | 1850 | 1330 | 2700 | 3.19 | 2320 | 2730 |
| COc1cc([N+](=O)[O-])c(OC)cc1-c1nc2sc(C)cn2c1/C(N)=N/C(=N)N | > 100 µM | > 100 µM | > 100 µM | > 100 µM | > 100 µM | > 100 µM | > 100 µM | 89.2 µM | 45.2 µM | > 100 µM | 16.1 | 27600 | 39800 | 22000 | 2590 | 16600 | 32900 | 25.2 | 13000 | 27300 |
| O=C1C=CC(=C(c2ccccc2)c2ccc(O)cc2)C=C1 | 53.6 µM | 32.5 µM | 30.5 µM | 43.3 µM | 68.1 µM | 39.6 µM | 22.5 µM | 47.7 µM | 28.6 µM | 30.8 µM | – | – | – | – | – | – | – | – | – | – |
| N#Cc1c(NC(=O)c2ccc(F)cc2)sc2c1CCCC2 | > 25 µM | > 25 µM | > 25 µM | > 25 µM | > 25 µM | > 25 µM | > 25 µM | > 25 µM | > 25 µM | > 25 µM | > 25 | > 25000 | > 25000 | > 25000 | > 25000 | > 25000 | > 25000 | > 25 | > 25000 | > 25000 |
| Cc1cnc2oc3ccc(O)cc3c2c1-c1ccccc1 | > 100 µM | > 100 µM | 67.3 µM | 58.8 µM | > 100 µM | 93.2 µM | > 100 µM | 74.4 µM | > 100 µM | 37.5 µM | 62.5 | 47500 | 18500 | 16100 | > 100000 | 23800 | 47000 | 19.6 | 32500 | 16100 |
| COc1cc(/C=C2\CCC/C(=C\c3ccc(O)c(OC)c3)C2=O)ccc1O | 13.5 µM and 5.95 µM | 10.8 µM and 3.39 µM | 6.17 µM and 2.94 µM | 6.91 µM and 8.2 µM | > 61 µM and 25.7 µM | 9.16 µM and 5.15 µM | 8.94 µM and 4.53 µM | 26.5 µM and 8.93 µM | 5.85 µM and 3.47 µM | 4.42 µM and 5.73 µM | 1.72 | 1560 | 1430 | 1800 | 2710 | 1710 | 1850 | 2.25 | 276 | – |
| COC1=C(C)C(=O)c2c(c(CCCl)c3n2CCC3OC(C)=O)C1=O (centres undefined) | 1.69 µM | 5.43 µM | 0.39 µM | 17.6 µM | > 33.1 µM | 0.864 µM | 10.1 µM | 3.62 µM | 0.414 µM | 0.545 µM | 0.0248 | 1480 | 167 | 310 | 1650 | 153 | 1650 | 0.417 | 188 | 157 |
| Clc1cc(Cl)c(OCCCCCCN2CCNCC2)c(Cl)c1 | 15.9 µM | 9.05 µM | 5.07 µM | 21.1 µM | 4.24 µM | 3.91 µM | 8.43 µM | 15.2 µM | 5.06 µM | 5.71 µM | 4.45 | 2760 | 1700 | 5850 | 1920 | 1810 | 3070 | 3.35 | 2190 | 2270 |
| Cc1ccc(C=C2C(Cl)=C(Cl)C(Cl)=C2Cl)cc1 | 3.13 µM | 1.06 µM | 0.906 µM | 2.28 µM | 0.522 µM | 3.93 µM | 1.64 µM | 7.56 µM | 2.62 µM | 2.81 µM | 0.926 | 361 | 308 | 617 | 202 | 1550 | 553 | 0.636 | 933 | 1450 |
| COC(=O)[C@]12CC[C@@H](C)[C@H](C)[C@@H]1C1=CC[C@@H]3[C@@]4(C)C[C@@H](OC(=O)/C=C/c5ccccc5)[C@H](O)[C@@](C)(CO)[C@@H]4[C@H](O)C[C@@]3(C)[C@]1(C)CC2 | 5.83 µM | 4.53 µM | 3.84 µM | 10.4 µM | 6.05 µM | 5.75 µM | 14 µM | 4.71 µM | 10.9 µM | 4.77 µM | 2.39 | 1980 | 1740 | 2620 | 2450 | 2270 | 3610 | 1.88 | 2840 | 2080 |
| Cn1cc(C2=C(c3cn(-c4ccccc4)c4ccccc34)C(=O)NC2=O)c2ccccc21 | > 25 µM | > 25 µM | > 25 µM | > 25 µM | > 25 µM | > 25 µM | > 25 µM | > 25 µM | > 25 µM | > 25 µM | > 25 | 14000 | 10200 | 20400 | 8750 | 13300 | 11700 | > 14.6 | 14900 | > 25000 |
| CC1(C)N=C(N)N=C(N)N1c1ccc(OCCCNC(=O)Nc2cccc(S(=O)(=O)F)c2)c(Cl)c1 | > 100 µM | > 100 µM | > 100 µM | > 100 µM | > 100 µM | > 100 µM | > 100 µM | > 100 µM | > 100 µM | > 100 µM | 2.87 | 8120 | 22200 | 596 | 598 | 5800 | 448 | 5.08 | 42800 | 4780 |
| NC(=S)N/N=C1\c2ccccc2-c2c(F)c(F)c(F)c(F)c21 | 17 µM | 3.88 µM | 3.85 µM | 12.5 µM | 6.61 µM | 57.7 µM | 13.8 µM | 39.5 µM | 21.1 µM | 12.8 µM | 5.39 | 2060 | 2070 | 5260 | 2090 | 12400 | 5810 | 6.25 | 7540 | 5390 |
